In assay [1] the test system is NSCLC A549 cell line. Description: MTT assay against human tumor NSCLC A549 cell line. The class given is cell-based. For orientation: Tetrazolium assays rely on reduction of a dye to a coloured formazan, in cell work by metabolically active cells.
The subject of assay [2] is colon LOVO cell line. Kind of assay: MTT assay against colon LOVO cell line. In kind it is cell-based, human.

Where two headings read alike, the source gives them in different places.

One may read the IC50 as the point on the concentration scale where inhibition reaches its midpoint. In the case of `CNC(=O)c1cccc2cc(Oc3ccnc4cc(OCCCN5CC6(CC6)C6(C5)OCCO6)c(OC)cc34)ccc12` [Example 26, 6-(6-Methoxy-7-[3-(5,8-Dioxa-10-azadispiro[2.0.4.3]undecane)propoxy]quinolin-4-yloxy)-N-methyl-1-naphthamide], the half-maximal inhibitory concentration (IC50) amounted to 0.8 µM in assay [1] and 1.1 µM in assay [2].
On to `COc1cc2c(Oc3ccc4[nH]c(C)cc4c3F)ccnc2cc1OCCCN1CC(OC)C2(CC2)C1` (centres unmarked) [Example 9, 4-(4-Fluoro-2-methyl-1H-indol-5-yloxy)-6-methoxy-7-(3-(7-methoxy-5-azaspiro[2.4]heptan-5-yl)propoxy)quinoline], for which the IC50 in assay [1] (Homo sapiens) turned out to be 0.1 µM; in assay [2] (Homo sapiens) it was 0.4 µM.
In the same order, the values of `CNC(=O)c1cccc2cc(Oc3ccnc4cc(OCCN5CC(OC)C6(CC6)C5)c(OC)cc34)ccc12` (centres unmarked) [Example 24, 6-(6-Methoxy-7-(2-(7-methoxy-5-azaspiro[2.4]heptan-5-yl)ethoxy)quinolin-4-yloxy)-N-methyl-1-naphthamide] are 1 µM and 1.5 µM.
Consider `C=C1CN(CCOc2cc3nccc(Oc4ccc5c(C(=O)NC)cccc5c4)c3cc2OC)CC12CC2` [Example 25, 6-(6-Methoxy-7-(2-(7-methylene-5-azaspiro[2.4]heptan-5-yl)ethoxy)quinolin-4-yloxy)-N-methyl-1-naphthamide], for which the IC50 in assay [1] (Homo sapiens) was determined as 0.3 µM; in assay [2] (Homo sapiens) it was 0.9 µM.
In the case of `C=C1CN(CCCOc2cc3nccc(Oc4ccc5c(C(=O)NC)c(C)oc5c4)c3cc2OC)CC12CC2` [Example 20, 6-(6-Methoxy-7-(3-(7-methylene-5-azaspiro[2.4]heptan-5-yl)propoxy)quinolin-4-yloxy)-N,2-dimethylbenzofuran-3-carboxamide], the results for the IC50 in assay [1] (Homo sapiens) and in assay [2] (Homo sapiens) were 0.3 µM and 0.9 µM, respectively.
Take `COc1cc2c(Oc3ccc4[nH]c(C)cc4c3F)ccnc2cc1OCCN1CC(O)C2(CC2)C1` (centres unmarked) [Example 3, 5-(2-(4-(4-fluoro-2-methyl-1H-indol-5-yloxy)-6-methoxyquinolin-7-yloxy)ethyl)-5-azaspiro[2.4]-heptan-7-ol]: the half-maximal inhibitory concentration (IC50) in assay [1] (Homo sapiens) was 0.1 µM; in assay [2] (Homo sapiens) it was 0.4 µM.
Regarding `CNC(=O)c1c(C)oc2cc(Oc3ccnc4cc(OCCCN5CC(=O)C6(CC6)C5)c(OC)cc34)ccc12` [Example 17, 6-(6-Methoxy-7-(3-(7-oxo-5-azaspiro[2.4]heptan-5-yl)propoxy)quinolin-4-yloxy)-N,2-benzofuran-3-carboxamide], the 50% inhibitory concentration (IC50) in assay [1] came to 0.3 µM; in assay [2] it was 0.9 µM.
As for `CNC(=O)c1c(C)oc2cc(Oc3ccnc4cc(OCCN5CC(OC)C6(CC6)C5)c(OC)cc34)ccc12` (centres unmarked) [Example 14, 6-(6-Methoxy-7-(2-(7-methoxy-5-azaspiro[2.4]heptan-5-yl)ethoxy)quinolin-4-yloxy)-N,2-dimethylbenzofuran-3-carboxamide], the IC50 in assay [1] (Homo sapiens) worked out at 0.2 µM; in assay [2] (Homo sapiens), 0.7 µM.
In the same order, the values of `C=C1CN(CCCOc2cc3nccc(Oc4ccc5[nH]c(C)cc5c4F)c3cc2OC)CC12CC2` [Example 10, 4-(4-Fluoro-2-methyl-1H-indol-5-yloxy)-6-methoxy-7-(3-(7-methylene-5-azaspiro[2.4]heptan-5-yl)propoxy)quinoline] are 0.1 µM and 0.4 µM.
As for `CNC(=O)c1cccc2cc(Oc3ccnc4cc(OCCCN5CC(=O)C6(CC6)C5)c(OC)cc34)ccc12` [Example 27, 6-(6-Methoxy-7-(3-(7-oxo-5-azaspiro[2.4]heptan-5-yl)propoxy)quinolin-4-yloxy)-N-methyl-1-naphthamide], the 50% inhibitory concentration (IC50) in assay [1] (Homo sapiens) was determined as 0.4 µM; in assay [2] (Homo sapiens) it was 0.9 µM.
As for `COc1cc2c(Oc3ccc4[nH]c(C)cc4c3F)ccnc2cc1OCCCN1CC(=O)C2(CC2)C1` [Example 7, 5-(3-(4-(4-Fluoro-2-methyl-1H-indol-5-yloxy)-6-methoxyquinolin-7-yloxy)propyl)-5-azaspiro[2.4]-heptan-7-one], the concentration for half-maximal inhibition (IC50) in assay [1] (Homo sapiens) was determined as 0.09 µM; in assay [2] (Homo sapiens), 0.2 µM.
In the same order, the values of `CNC(=O)c1cccc2cc(Oc3ccnc4cc(OCCN5CC(O)C6(CC6)C5)c(OC)cc34)ccc12` (centres unmarked) [Example 23, 6-(7-(2-(7-Hydroxy-5-azaspiro[2.4]heptan-5-yl)ethoxy)-6-methoxyquinolin-4-yloxy)-N-methyl-1-naphthamide] are 0.8 µM and 1.2 µM.
`COc1cc2c(Oc3ccc4[nH]c(C)cc4c3F)ccnc2cc1OCCN1CC(OC)C2(CC2)C1` (centres unmarked) [Example 4, 4-(4-Fluoro-2-methyl-1H-indol-5-yloxy)-6-methoxy-7-(2-(7-methoxy-5-azaspiro[2.4]heptan-5-yl)ethoxy)quinoline]: the results for the IC50 in assay [1] (Homo sapiens) and in assay [2] (Homo sapiens) were 0.08 µM and 0.4 µM, respectively.
`CNC(=O)c1c(C)oc2cc(Oc3ccnc4cc(OCCN5CC(=O)C6(CC6)C5)c(OC)cc34)ccc12` [Example 12, 6-(6-Methoxy-7-(2-(7-oxo-5-azaspiro[2.4]heptan-5-yl)ethoxy)quinolin-4-yloxy)-N,2-dimethylbenzofuran-3-carboxamide]: the concentration for half-maximal inhibition (IC50) is 0.3 µM in assay [1] (Homo sapiens) and 0.9 µM in assay [2] (Homo sapiens).
For the compound `CNC(=O)c1cccc2cc(Oc3ccnc4cc(OCCCN5CC(O)C6(CC6)C5)c(OC)cc34)ccc12` (centres unmarked) [Example 28, 6-(7-(3-(7-Hydroxy-5-azaspiro[2.4]heptan-5-yl)propoxy)-6-methoxyquinolin-4-yloxy)-N-methyl-1-naphthamide], the IC50 in assay [1] (Homo sapiens) came to 1 µM; in assay [2] (Homo sapiens), 1.5 µM.
As for `CNC(=O)c1c(C)oc2cc(Oc3ccnc4cc(OCCN5CC6(CC6)C6(C5)OCCO6)c(OC)cc34)ccc12` [Example 11, 6-(6-Methoxy-7-[2-(5,8-Dioxa-10-azadispiro[2.0.4.3]undecane)ethoxy]quinolin-4-yloxy)-N,2-dimethylbenzofuran-3-carboxamide], the IC50 in assay [1] was found to be 0.2 µM; in assay [2], 0.7 µM.
For the compound `COc1cc2c(Oc3ccc4[nH]c(C)cc4c3F)ccnc2cc1OCCCN1CC2(CC2)C2(C1)OCCO2` [Example 6, 4-(4-fluoro-2-methyl-1H-indol-5-yloxy)-6-methoxy-7-[3-(5,8-Dioxa-10-azadispiro[2.0.4.3]-undecane)propoxy]quinoline], the results for the IC50 in assay [1] and in assay [2] were 0.08 µM and 0.4 µM, respectively.
As for `CNC(=O)c1c(C)oc2cc(Oc3ccnc4cc(OCCCN5CC(OC)C6(CC6)C5)c(OC)cc34)ccc12` (centres unmarked) [Example 19, 6-(6-Methoxy-7-(3-(7-methoxy-5-azaspiro[2.4]heptan-5-yl)propoxy)quinolin-4-yloxy)-N,2-dimethyl-benzofuran-3-carboxamide], the IC50 was 0.2 µM in assay [1] (Homo sapiens) and 0.7 µM in assay [2] (Homo sapiens).
Turning to `CNC(=O)c1c(C)oc2cc(Oc3ccnc4cc(OCCCN5CC6(CC6)C6(C5)OCCO6)c(OC)cc34)ccc12` [Example 16, 6-(6-Methoxy-7-[3-(5,8-Dioxa-10-azadispiro[2.0.4.3]undecane)propoxy]quinolin-4-yloxy)-N,2-dimethylbenzofuran-3-carboxamide], the values for the 50% inhibitory concentration (IC50) in assay [1] and in assay [2] were 0.2 µM and 0.7 µM, respectively.
In the same order, the values of `CNC(=O)c1cccc2cc(Oc3ccnc4cc(OCCN5CC6(CC6)C6(C5)OCCO6)c(OC)cc34)ccc12` [Example 21, 6-(6-Methoxy-7-[2-(5,8-Dioxa-10-azadispiro[2.0.4.3]undecane)ethoxy]quinolin-4-yloxy)-N-methyl-1-naphthamide] are 0.8 µM and 1.1 µM.
As to `C=C1CN(CCOc2cc3nccc(Oc4ccc5c(C(=O)NC)c(C)oc5c4)c3cc2OC)CC12CC2` [Example 15, 6-(6-Methoxy-7-(2-(7-methylene-5-azaspiro[2.4]heptan-5-yl)ethoxy)quinolin-4-yloxy)-N,2-dimethyl-benzofuran-3-carboxamide], the IC50 in assay [1] (Homo sapiens) stood at 0.3 µM; in assay [2] (Homo sapiens), 0.9 µM.
For the compound `CNC(=O)c1c(C)oc2cc(Oc3ccnc4cc(OCCN5CC(O)C6(CC6)C5)c(OC)cc34)ccc12` (centres unmarked) [Example 13, 6-(7-(2-(7-Hydroxy-5-azaspiro[2.4]heptan-5-yl)ethoxy)-6-methoxyquinolin-4-yloxy)-N,2-dimethylbenzofuran-3-carboxamide], the IC50 in assay [1] (Homo sapiens) was determined as 0.2 µM; in assay [2] (Homo sapiens), 0.9 µM.
Regarding `COc1cc2c(Oc3ccc4[nH]c(C)cc4c3F)ccnc2cc1OCCCN1CC(O)C2(CC2)C1` (centres unmarked) [Example 8, 5-(3-(4-(4-Fluoro-2-methyl-1H-indol-5-yloxy)-6-methoxyquinolin-7-yloxy)propyl)-5-azaspiro[2.4]-heptan-7-ol], the IC50 was found to be 0.1 µM in assay [1] (Homo sapiens) and 0.3 µM in assay [2] (Homo sapiens).
For the compound `CNC(=O)c1cccc2cc(Oc3ccnc4cc(OCCN5CC(=O)C6(CC6)C5)c(OC)cc34)ccc12` [Example 22, 6-(6-Methoxy-7-(2-(7-oxo-5-azaspiro[2.4]heptan-5-yl)ethoxy)quinolin-4-yloxy)-N-methyl-1-naphthamide], the results for the half-maximal inhibitory concentration (IC50) in assay [1] (Homo sapiens) and in assay [2] (Homo sapiens) were 0.7 µM and 1.1 µM, respectively.
Taken in the same sequence, the figures for `C=C1CN(CCOc2cc3nccc(Oc4ccc5[nH]c(C)cc5c4F)c3cc2OC)CC12CC2` [Example 5, 4-(4-Fluoro-2-methyl-1H-indol-5-yloxy)-6-methoxy-7-(2-(7-methylene-5-azaspiro[2.4]heptan-5-yl)ethoxy)quinoline] were 0.1 µM and 0.4 µM.
For `CNC(=O)c1c(C)oc2cc(Oc3ccnc4cc(OCCCN5CC(O)C6(CC6)C5)c(OC)cc34)ccc12` (centres unmarked) [Example 18, 6-(7-(3-(7-Hydroxy-5-azaspiro[2.4]heptan-5-yl)propoxy)-6-methoxyquinolin-4-yloxy)-N,2-dimethyl-benzofuran-3-carboxamide], the IC50 in assay [1] (Homo sapiens) stood at 0.5 µM; in assay [2] (Homo sapiens) it was 0.8 µM.
As for `CNC(=O)c1cccc2cc(Oc3ccnc4cc(OCCCN5CC(OC)C6(CC6)C5)c(OC)cc34)ccc12` (centres unmarked) [Example 29, 6-(6-Methoxy-7-(3-(7-methoxy-5-azaspiro[2.4]heptan-5-yl)propoxy)quinolin-4-yloxy)-N-methyl-1-naphthamide], the results for the IC50 in assay [1] (Homo sapiens) and in assay [2] (Homo sapiens) were 0.3 µM and 0.9 µM, respectively.
On to `C=C1CN(CCCOc2cc3nccc(Oc4ccc5c(C(=O)NC)cccc5c4)c3cc2OC)CC12CC2` [Example 30, 6-(6-Methoxy-7-(3-(7-methylene-5-azaspiro[2.4]heptan-5-yl)propoxy)quinolin-4-yloxy)-N-methyl-1-naphthamide], for which the IC50 is 0.9 µM in assay [1] (Homo sapiens) and 1 µM in assay [2] (Homo sapiens).

Values taken from US8211911B2, “Compounds as kinase inhibitors” (priority 2008, dated 2012).
